Assay results as given in patent US12492222B2, “Lipophilic enantiomers of desacetylglucosamine muramyl dipeptide with anti-inflammatory and growth promoting activity” (Nutrivert Inc., priority 2020, dated 2025).
Peptide text beside a SMILES is read from it.

What was measured:
[1] = system: broiler chickens; test: Growth rate and feed conversion in broiler chickens fed supplemented feed; assay type: in vivo; conditions: for feed conversion rate at constant body weight gain: LDPP 0.2 mg/kg feed, bacitracin 50 mg/kg feed
Description: The objective of this experiment was to evaluate if supplementation of feed with L-lactate-D-alanine-L-glutamine palmityl ester (LDPP) at 0.2 mg/kg feed increases the growth rate and/or improves the feed conversion in broiler chickens, i.e., if it promotes growth by making broiler chickens grow faster and/or require less feed for the same amount of gain in body weight. A secondary objective was to compare the effect of LDPP to that of bacitracin, an industry-standard growth promoting antibiotic.
Freshly hatched female Ross 708 broiler chickens were housed for as single flock for 21 days on a floor pen with used bedding. All chickens received crumbled untreated standard Aviagen 708 starter and grower feeds during this time, with 80% recommended crude protein and without anti-coccidial supplement. After 3 weeks, the chickens were grouped into 38 replicate floor pens of 25 chickens with fresh bedding. Chickens were fed for 24 days from day 21 through termination on day 44 standard crumbled finisher Aviagen 708 finisher feed with 100% protein and 0.0125% amprolium anti-coccidial inclusion. Feed and water were available ad libitum throughout the trial. Thirteen pens each were assigned to untreated controls (feed without supplement) and LDPP-treatment (0.2 mg LDPP/kg feed), and 12 pens were assigned to bacitracin treatment (50 mg bacitracin/kg feed). The experimental unit was the pen rather than individual chickens. Pen weights of chickens were determined on day 21 and 44. Finisher feed uptake was be recorded, and on day 44 residual feed was determined, and the experiment was terminated.
For constant time analyses of the complete 24-day duration of the feeding experiment, the overall (true) feed conversion for each treatment group was determined by dividing total consumed feed by total weight gains of all pens of each treatment group.
For constant body weight gain analyses, the time on feed of the bacitracin and LDPP treated groups was modeled to match the weight gain of the untreated control group. Based on the closely matching body weights and weight gains of standard female Ross 708 broilers, body weight gains per chicken on the last day 44 of the experiment were calculated as the 0.04781 fraction of pen body weight gain day 21-44/surviving chickens per pen. […] Similarly, feed consumption per chicken on day 44 was calculated as the 0.05867 fraction of pen feed uptake day 21-44/surviving chickens per pen. Mean feed uptake per treatment group was then calculated by subtracting the previously found fractional daily feed uptake from each pen.
Body weight gain and feed consumption data were analyzed by one-way ANOVA and Tukey […] connection for multiple comparisons. Group differences in feed conversion rates were evaluated from pen FCR data by non-parametric Mann Whitney U test.

[2] = system: nursery pigs; test: Growth rate and feed conversion in freshly weaned nursery pigs fed supplemented feed; assay type: in vivo; conditions: 0.2 mg/kg feed
Description: The objective of this experiment was to evaluate if supplementation of feed with L-lactate-D-alanine-L-glutamine palmityl ester (LDPP) at 0.2 mg/kg feed increases the growth rate and/or improves the feed conversion in freshly weaned nursery pigs.
Male pigs (barrows) were used in this study. Pigs were weaned at approximately 3 weeks of age, transferred to the nursery, and randomly allotted to 24 nursery pens with 4 pigs per pen. One of 2 dietary treatments, untreated controls (feed without supplement) or LDPP-treatment (0.2 mg LDPP/kg feed), was assigned to each pen, such that 12 pens of 4 pigs were used to evaluate the effect of each diet. Premixes of the treatment compounds were added at 0.1% to mixed diets, which were then pelleted. Phase 1 diet was fed at 6 lb/pig from day 0 to approximately day 8 post-weaning. On day 8 post-weaning, pigs were switched to 12 lb/pig Phase 2 diet which expired approximately on day 18. Once the Phase 2 diet had been consumed, pigs were switched to Phase 3 diet and maintained until termination of the study on day 42. No antibiotics were added to any diet. Diets were formulated to meet or exceed all the nutrient requirements based on the 2012 NRC specifications. Pigs received diets and water ad libitum. Pigs were weighed individually on days 0 and 42 of the experiment. Feed intake per pen was monitored for the weigh period. Although individual pig weights were obtained, the pen was the experimental unit. On day 42, the study was terminated and untreated pigs were retained in the food chain while the treatment pigs were euthanized.
Pen data were converted into individual pig data by dividing by the number of pigs. For three pens in which pigs were euthanized, a time-fractional pig number was used. Body weight gain and calculated feed consumption data were analyzed by pairwise T-test. The overall (true) feed conversion for each treatment was determined by dividing total consumed feed by total weight gains of all pens of each treatment. Treatment differences in feed conversion were statistically evaluated by non-parametric Mann Whitney U test of pen feed conversion data.
For constant body weight gain analyses, the time on feed of the LDPP treated group was modeled to match the weight gain of the untreated control group. Daily body weights and weight gains were modeled by linear interpolation between weights on days 0 and 42. […] From interpolated daily body weight data, daily feed consumption was first calculated as 5% of body weight. The sum of these daily feed uptakes was then divided by the actual weighed feed uptake of each pen, and daily feed uptakes were multiplied by this fraction to arrive at the precise weighed feed uptake per pen. These calculated daily feed uptakes were used to calculate feed uptake by changed times on feed for the LDPP treatment group. Mean feed uptake of the LDPP treatment group was then calculated by subtracting for each pen the previously found day 42 and 41 and the fractional day 40 feed uptake.
Body weight gain and feed consumption data were analyzed by one-way ANOVA and Student's T-test. Differences in feed conversion rates were evaluated from pen FCR data by non-parametric Mann Whitney U test.

[3] = modeled, 1,653 g constant weight gain

Row | Compound | feed conversion rate at constant time ([1]; 0.2 mg/kg feed, 24 days, total consumed feed / total weight gain, untreated 1.818) | morbidity and mortality rates between groups ([1]; 0.2 mg/kg feed, day 21-44) | body weight gain per chicken ([1]; 0.2 mg/kg feed, day 21-44 (24 days constant time)) | increase of weight gain versus untreated control chickens ([1]; 0.2 mg/kg feed, day 21-44 (24 days constant time), control 1,653 g) | improvement of feed conversion rate at constant body weight gain versus untreated ([1]; 0.2 mg/kg feed, modeled constant weight gain) | time on feed required for weight gain identical to untreated controls ([1]; 0.2 mg/kg feed, modeled, 1,653 g constant weight gain, controls 24 days) | feed conversion rate at constant body weight gain [1, 3] | improvement of feed conversion rate at constant time versus untreated ([2]; 42 days) | feed conversion rate at constant time ([2]; 42 days, total consumed feed / total weight gain, untreated 1.479) | morbidity and mortality rates between groups ([2]; day 0-42) | body weight gain per pig ([2]; day 0-42 (constant time)) | increase of weight gain versus untreated nursery pigs ([2]; day 0-42 (constant time), control 22.076 kg) | improvement of feed conversion rate at constant body weight gain versus untreated ([2]; modeled constant weight gain) | more rapid growth compared to controls ([2]; modeled constant weight gain) | feed conversion rate at constant body weight gain ([2]; modeled, 22.076 kg constant weight gain) | time on feed required for weight gain identical to untreated controls ([2]; modeled, 22.076 kg constant weight gain, controls 42 days)
1 | CCCCCCCCCCCCCCCCOC(=O)[C@H](CCC(N)=O)NC(=O)[C@@H](C)NC(=O)[C@H](C)O [LDPP, hexadecyl (2S)-5-amino-2-[[(2R)-2-[[(2S)-2-hydroxypropanoyl]amino]propanoyl]amino]-5-oxo-pentanoate] | 1.805 | did not differ significantly | 1,725 g | 4.4% | 1.7% | 23.13 days | 1.787 | 3.8% | 1.423 | did not differ significantly | 23.826 kg | 7.9% | 5.5% | 2.1 days | 1.396 | 39.921 days
2 | CC[C@H](C)[C@H](N)C1=N[C@H](C(=O)N[C@@H](CC(C)C)C(=O)N[C@H](CCC(=O)O)C(=O)N[C@H](C(=O)N[C@H]2CCCCNC(=O)[C@H](CC(N)=O)NC(=O)[C@@H](CC(=O)O)NC(=O)[C@H](Cc3cnc[nH]3)NC(=O)[C@@H](Cc3ccccc3)NC(=O)[C@H]([C@@H](C)CC)NC(=O)[C@@H](CCCN)NC2=O)[C@@H](C)CC)CS1 [bacitracin, reference compound] (HELM PEPTIDE1{[CC[C@H](C)[C@H](N)C1=N[C@H](C(=O)[*:2])CS1].L.[dE].I.K.[NCCC[C@@H](N[*:1])C(=O)[*:2]].I.[dF].H.[dD].N}$PEPTIDE1,PEPTIDE1,5:R3-11:R2$$$V2.0) | – | – | – | – | – | – | 1.827 | – | – | – | – | – | – | – | – | –
